Test results as given in patent US6514998B1 (priority 1994, dated 2003).

How the values were obtained:
Botrytis cinerea = details: application rate 500 ppm; paprika seedlings (Neusiedler Ideal Elite) sprayed before infection; 5 days; untreated plants 80% attack
Fusarium culmorum = experiment: Activity against Fusarium culmorum on wheat seedlings; assay type: in vivo; details: application rate 500 ppm; wheat seedlings (Kanzler) sprayed one day before infection; 6 days; untreated plants 60% attack
Protocol: On the following day, the plants were infected with a spore suspension of Fusarium culmorum. The plants treated in this way were incubated for 6 days at 22-24° C. and a relative atmospheric humidity of >90%. Assessment was carried out visually.

Pyricularia oryzae = assay type: in vivo; details: application rate 250 ppm; rice seedlings (Tai Nong 67) sprayed 24 h before infection; 6 days; untreated plants 70% attack

Structure (SMILES): COC(=O)N(OC)c1ccccc1COc1ncn(-c2ccccc2)n1 [Compound 2]
- attack (visual assessment) (Botrytis cinerea): 5%
- attack (visual assessment) (Fusarium culmorum): 5%
- attack (visual assessment) (Pyricularia oryzae): 3%
